From patent US8501713B2, “Drug combinations for the treatment of duchenne muscular dystrophy” (Summit Corporation PLC, priority 2007, dated 2013) come the findings set out here.

For this assay, the system named is Utrophin A promoter linked to a luciferase reporter gene. In words: Luciferase reporter assay (murine H2K cells). It counts as cell-based. Particulars: luciferase level relative to control, H2K/mdx/Utro A reporter cells, compound 10 μM final concentration; for activity at 10 µM: Mus musculus, H2K mdx, read-out: Activity. The gist of the method: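 Compound at 10 μM final was applied for 48 hrs to plated H2K mdx myoblasts (33° C, 10% CO2, interferon-containing medium) bearing a luciferase gene under the utrophin A promoter. Luminescence from lysed cells served as read-out.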

The structures appear in SMILES notation.

Regarding `Cc1ccc(-c2nc3cc(NS(=O)(=O)C(C)C)ccc3o2)cc1` [Example 259, N-(2-p-tolylbenzo[d]oxazol-5-yl)propane-2-sulfonamide], the activity at 10 µM was less than 200%. Still for that read-out and setting: next, `CCCS(=O)(=O)Nc1ccc2oc(-c3ccc(Cl)cc3)nc2c1` [Example 260, N-(2-(4-chlorophenyl)benzo[d]oxazol-5-yl)propane-1-sulfonamide]: less than 200%. Still for that read-out and setting: next, `CC(C)S(=O)(=O)Nc1ccc2oc(-c3ccc(Cl)cc3)nc2c1` [Example 261, N-(2-(4-chlorophenyl)benzo[d]oxazol-5-yl)propane-2-sulfonamide]: less than 200%; `CCCCc1ccc(-c2nc3ccc([N+](=O)[O-])cc3o2)nc1` [Example 262, 2-(5-butylpyridin-2-yl)-6-nitrobenzo[d]oxazole]: 201 to 300%; `CC(C)NC(=O)c1ccc2oc(-c3ccc(Cl)cc3)nc2c1` [Example 263, 2-(4-chlorophenyl)-N-isopropylbenzo[d]oxazole-5-carboxamide]: 301 to 400%. On the same count and under the same terms, the value for `NC(=O)c1ccc2oc(-c3ccc(Cl)cc3)nc2c1` [Example 264, 2-(4-chlorophenyl)benzo[d]oxazole-5-carboxamide] was more than 401%. Turning to `O=C(Nc1ccc2oc(-c3ccc(Cl)cc3)nc2c1)C1CC1` [Example 265, N-(2-(4-chlorophenyl)benzo[d]oxazol-5-yl)cyclopropanecarboxamide], the activity at 10 µM is more than 401%. With `O=C(Nc1ccc2oc(-c3ccc(Cl)cc3)nc2c1)C1CCC1` [Example 266, N-(2-(4-chlorophenyl)benzo[d]oxazol-5-yl)cyclobutanecarboxamide], the activity at 10 µM is 301 to 400%.

Regarding `CC(C)C(=O)Nc1ccc2sc(-c3ccccc3)nc2c1` [Example 267, N-(2-phenylbenzo[d]thiazol-5-yl)isobutyramide], the activity at 10 µM was more than 401%. Turning to `CC(C)C(=O)Nc1ccc2oc(-c3ccc(Cl)c(Cl)c3)nc2c1` [Example 268, N-(2-(3,4-dichlorophenyl)benzo[d]oxazol-5-yl)isobutyramide], the activity at 10 µM was more than 401%. The same measure, in the same setting: the value for `CCS(=O)(=O)c1ccc(-c2ccc3oc(-c4ccc(Cl)cc4)nc3c2)cc1` [Example 269, 2-(4-chlorophenyl)-5-(4-(ethylsulfonyl)phenyl)benzo[d]oxazole] was less than 200%. The same measure, in the same setting: next, `CC(C)C(=O)Nc1ccc2oc(-c3ccc(Cl)cn3)nc2c1` [Example 270, N-(2-(5-chloropyridin-2-yl)benzo[d]oxazol-5-yl)isobutyramide]: more than 401%.

Consider `CC(C)C(=O)Nc1ccc2oc(-c3cc(Cl)cc(Cl)c3)nc2c1` [Example 271, N-(2-(3,5-dichlorophenyl)benzo[d]oxazol-5-yl)isobutyramide], for which the activity at 10 µM was in the range of 201 to 300%. Same read-out and setting: next, `C[C@H](N)C(=O)Nc1ccc2oc(-c3ccc(Cl)cc3)nc2c1` [Example 272, (S)-2-amino-N-(2-(4-chlorophenyl)benzo[d]oxazol-5-yl)propanamide]: 301 to 400%; `CC(C)C(=O)Nc1ccc2oc(-c3cccc(Cl)c3Cl)nc2c1` [Example 273, N-(2-(2,3-dichlorophenyl)benzo[d]oxazol-5-yl)isobutyramide]: more than 401%. On the same count and under the same terms, the value for `CC(C)NC(=S)c1ccc2oc(-c3ccc(Cl)cc3)nc2c1` [Example 274, 2-(4-chlorophenyl)-N-isopropylbenzo[d]oxazole-5-carbothioamide] was less than 200%.

With `CC(C)C(=S)Nc1ccc2oc(-c3ccc(Cl)cc3)nc2c1` [Example 275, N-(2-(4-chlorophenyl)benzo[d]oxazol-5-yl)-2-methylpropanethioamide], the activity at 10 µM lay in the range of 201 to 300%. The same measure, in the same setting: next, `Nc1ccc2sc(-c3ccc(Cl)cc3)nc2c1` [Example 276, 2-(4-chlorophenyl)benzo[d]thiazol-5-amine]: more than 401%; `CC(C)C(=O)Nc1ccc2sc(-c3ccc(Cl)cc3)nc2c1` [Example 277, N-(2-(4-chlorophenyl)benzo[d]thiazol-5-yl)isobutyramide]: 301 to 400%; `CC(C)N(C)C(=O)c1ccc2oc(-c3ccc(Cl)cc3)nc2c1` [Example 278, 2-(4-chlorophenyl)-N-isopropyl-N-methylbenzo[d]oxazole-5-carboxamide]: 301 to 400%. `CNC(=O)c1ccc2oc(-c3ccc(Cl)cc3)nc2c1` [Example 279, 2-(4-chlorophenyl)-N-methylbenzo[d]oxazole-5-carboxamide]: the activity at 10 µM lay in the range of 301 to 400%.

As for `Nc1ccc2oc(CCc3ccccc3)nc2c1` [Example 280, 2-phenethylbenzo[d]oxazol-5-amine], the activity at 10 µM is more than 401%. Still for that read-out and setting: the value for `CC(C)S(=O)(=O)c1ccc2oc(-c3ccc(Cl)cc3)nc2c1` [Example 281, 2-(4-chlorophenyl)-5-(isopropylsulfonyl)benzo[d]oxazole] was more than 401%; that for `Nc1ccc2sc(-c3ccccc3Cl)nc2c1` [Example 282, 2-(2-chlorophenyl)benzo[d]thiazol-5-amine] was more than 401%; that for `Nc1ccc2sc(-c3cccc(Cl)c3)nc2c1` [Example 283, 2-(3-chlorophenyl)benzo[d]thiazol-5-amine] was more than 401%.

As to `Nc1ccc2sc(-c3ccc(Cl)c(Cl)c3)nc2c1` [Example 284, 2-(3,4-dichlorophenyl)benzo[d]thiazol-5-amine], the activity at 10 µM is more than 401%. The same measure, in the same setting: next, `O=C(CCN1CCOCC1)Nc1ccc2oc(-c3ccccc3)nc2c1` [Example 285, 3-morpholino-N-(2-phenylbenzo[d]oxazol-5-yl)propanamide]: less than 200%; `O=[N+]([O-])c1ccc2oc(-c3ccc4c(c3)OCO4)nc2c1` [Example 286, 2-(benzo[d][1,3]dioxol-5-yl)-5-nitrobenzo[d]oxazole]: 301 to 400%.

Take `COC(=O)c1ccc(-c2ccc3oc(-c4ccc(Cl)cc4)nc3c2)cc1` [Example 287, methyl 4-(2-(4-chlorophenyl)benzo[d]oxazol-5-yl)benzoate]: the activity at 10 µM is less than 200%.

For `Clc1ccc(-c2nc3cc(Br)ccc3o2)cc1` [Example 288, 5-bromo-2-(4-chlorophenyl)benzo[d]oxazole], the activity at 10 µM was more than 401%. In the case of `Nc1ccc(-c2nc3cc(Cl)ccc3o2)cc1` [Example 289, 4-(5-chlorobenzo[d]oxazol-2-yl)aniline], the activity at 10 µM was more than 401%. On the same count and under the same terms, next, `Nc1ccc(-c2nc3ccc(Cl)cc3o2)cc1` [Example 290, 4-(6-chlorobenzo[d]oxazol-2-yl)aniline]: 301 to 400%; `Clc1ccc(-c2nc3cc(-c4ccc(N5CCOCC5)cc4)ccc3o2)cc1` [Example 291, 2-(4-chlorophenyl)-5-(4-morpholinophenyl)benzo[d]oxazole]: 201 to 300%; `CCSc1cccc(-c2ccc3oc(-c4ccc(Cl)cc4)nc3c2)c1` [Example 292, 2-(4-chlorophenyl)-5-(3-(ethylthio)phenyl)benzo[d]oxazole]: 201 to 300%.

With `CCS(=O)(=O)c1ccc2oc(-c3cccc(Cl)c3)nc2c1` [Example 293, 2-(3-chlorophenyl)-5-(ethylsulfonyl)benzo[d]oxazole], the activity at 10 µM was more than 401%.

Take `CC(=O)Nc1ccccc1-c1ccc2oc(-c3ccc(Cl)cc3)nc2c1` [Example 294, N-(2-(2-(4-chlorophenyl)benzo[d]oxazol-5-yl)phenyl)acetamide]: the activity at 10 µM was less than 200%. The same measure, in the same setting: next, `CC(C)C(=O)Nc1ccc2sc(-c3ccccc3Cl)nc2c1` [Example 295, N-(2-(2-chlorophenyl)benzo[d]thiazol-5-yl)isobutyramide]: more than 401%; `CC(C)C(=O)Nc1ccc2sc(-c3cccc(Cl)c3)nc2c1` [Example 296, N-(2-(3-chlorophenyl)benzo[d]thiazol-5-yl)isobutyramide]: more than 401%. On the same count and under the same terms, the value for `CC(C)C(=O)Nc1ccc2sc(-c3ccc(Cl)c(Cl)c3)nc2c1` [Example 297, N-(2-(3,4-dichlorophenyl)benzo[d]thiazol-5-yl)isobutyramide] was more than 401%; that for `CCS(=O)(=O)c1ccc2oc(-c3ccccc3Cl)nc2c1` [Example 298, 2-(2-Chlorophenyl)-5-(ethylsulfonyl)benzo[d]oxazole] was 201 to 300%. The same measure, in the same setting: next, `Nc1ccc2oc(-c3ccc4c(c3)OCO4)nc2c1` [Example 299, 2-(benzo[d][1,3]dioxol-5-yl)benzo[d]oxazol-5-amine]: 201 to 300%; `CC(C)C(=O)Nc1ccc2oc(-c3ccc4c(c3)OCO4)nc2c1` [Example 300, N-(2-(benzo[d][1,3]dioxol-5-yl)benzo[d]oxazol-5-yl)isobutyramide]: 301 to 400%; `CCS(=O)(=O)c1ccc2oc(-c3ccc(Cl)c(Cl)c3)nc2c1` [Example 301, 2-(3,4-diChlorophenyl)-5-(ethylsulfonyl)benzo[d]oxazole]: 201 to 300%. On to `CC(C)C(=O)Nc1ccc2oc(CCc3ccccc3)nc2c1` [Example 302, N-(2-phenethylbenzo[d]oxazol-5-yl)isobutyramide], for which the activity at 10 µM was less than 200%.

Turning to `CC(C)C(=O)Nc1ccc2sc(-c3cccc(Cl)c3Cl)nc2c1` [Example 303, N-(2-(2,3-dichlorophenyl)benzo[d]thiazol-5-yl)isobutyramide], the activity at 10 µM was in the range of 301 to 400%.

`CCS(=O)(=O)c1ccc2oc(-c3cccc(Cl)c3Cl)nc2c1` [Example 304, 2-(2,3-diChlorophenyl)-5-(ethylsulfonyl)benzo[d]oxazole]: the activity at 10 µM was less than 200%. The same measure, in the same setting: the value for `COc1ccc(-c2ccc3oc(-c4ccc(Cl)cc4)nc3c2)cn1` [Example 305, 2-(4-chlorophenyl)-5-(6-methoxypyridin-3-yl)benzo[d]oxazole] was 201 to 300%. As to `COc1ccc(-c2ccc3oc(-c4ccc(Cl)cc4)nc3c2)cn1` [Example 306, 2-(4-chlorophenyl)-5-(6-methoxypyridin-3-yl)benzo[d]oxazole], the Activity result is reported as “+ (Up to 200% relative to control)”.
